Assay results reported in ChEMBL document CHEMBL6083219, “Rationally designed febuxostat-based hydroxamic acid and its pH-Responsive nanoformulation elicits anti-tumor activity” (Eur J Med Chem, 2024).
Calls of active or inactive are those of the source. No cut-off for these calls is given here.

Experiments:
MDA-MB-231 = test: cells; conditions: Homo sapiens, MDA-MB-231, 48 h
Description: Cytotoxicity against human MDA-MB-231 cells incubated for 48 hrs by MTT assay

HL-60 [1] = assay type: functional, cell-based; conditions: Homo sapiens, HL-60, 48 h
Rattus norvegicus [2] = test: Anti-hyperuricemic activity against potassium oxonate-induced hyperuricemia Wistar rat model assessed as decrease in blood urea level at 10 mg/kg measured after 14 days; assay type: functional, organism-based; conditions: time 14.0 day
Rattus norvegicus [3] = test: Anti-hyperuricemic activity against potassium oxonate-induced hyperuricemia Wistar rat model assessed as decrease in serum uric acid level at 10 mg/kg measured after 14 days; assay type: functional, organism-based; conditions: time 14.0 day
Rattus norvegicus [4] = test: Anti-hyperuricemic activity against potassium oxonate-induced hyperuricemia Wistar rat model assessed as decrease in serum creatinine level at 10 mg/kg measured after 14 days; assay type: functional, organism-based; conditions: time 14.0 day
NCI-H1975 = assay type: functional, cell-based; conditions: Homo sapiens, NCI-H1975, 48 h
[5] = biological target: Xanthine dehydrogenase/oxidase (Bos taurus, UniProt P80457); test: Inhibition of bovine milk xanthine oxidase
Chain of Xanthine dehydrogenase/oxidase (P80457 whole entry): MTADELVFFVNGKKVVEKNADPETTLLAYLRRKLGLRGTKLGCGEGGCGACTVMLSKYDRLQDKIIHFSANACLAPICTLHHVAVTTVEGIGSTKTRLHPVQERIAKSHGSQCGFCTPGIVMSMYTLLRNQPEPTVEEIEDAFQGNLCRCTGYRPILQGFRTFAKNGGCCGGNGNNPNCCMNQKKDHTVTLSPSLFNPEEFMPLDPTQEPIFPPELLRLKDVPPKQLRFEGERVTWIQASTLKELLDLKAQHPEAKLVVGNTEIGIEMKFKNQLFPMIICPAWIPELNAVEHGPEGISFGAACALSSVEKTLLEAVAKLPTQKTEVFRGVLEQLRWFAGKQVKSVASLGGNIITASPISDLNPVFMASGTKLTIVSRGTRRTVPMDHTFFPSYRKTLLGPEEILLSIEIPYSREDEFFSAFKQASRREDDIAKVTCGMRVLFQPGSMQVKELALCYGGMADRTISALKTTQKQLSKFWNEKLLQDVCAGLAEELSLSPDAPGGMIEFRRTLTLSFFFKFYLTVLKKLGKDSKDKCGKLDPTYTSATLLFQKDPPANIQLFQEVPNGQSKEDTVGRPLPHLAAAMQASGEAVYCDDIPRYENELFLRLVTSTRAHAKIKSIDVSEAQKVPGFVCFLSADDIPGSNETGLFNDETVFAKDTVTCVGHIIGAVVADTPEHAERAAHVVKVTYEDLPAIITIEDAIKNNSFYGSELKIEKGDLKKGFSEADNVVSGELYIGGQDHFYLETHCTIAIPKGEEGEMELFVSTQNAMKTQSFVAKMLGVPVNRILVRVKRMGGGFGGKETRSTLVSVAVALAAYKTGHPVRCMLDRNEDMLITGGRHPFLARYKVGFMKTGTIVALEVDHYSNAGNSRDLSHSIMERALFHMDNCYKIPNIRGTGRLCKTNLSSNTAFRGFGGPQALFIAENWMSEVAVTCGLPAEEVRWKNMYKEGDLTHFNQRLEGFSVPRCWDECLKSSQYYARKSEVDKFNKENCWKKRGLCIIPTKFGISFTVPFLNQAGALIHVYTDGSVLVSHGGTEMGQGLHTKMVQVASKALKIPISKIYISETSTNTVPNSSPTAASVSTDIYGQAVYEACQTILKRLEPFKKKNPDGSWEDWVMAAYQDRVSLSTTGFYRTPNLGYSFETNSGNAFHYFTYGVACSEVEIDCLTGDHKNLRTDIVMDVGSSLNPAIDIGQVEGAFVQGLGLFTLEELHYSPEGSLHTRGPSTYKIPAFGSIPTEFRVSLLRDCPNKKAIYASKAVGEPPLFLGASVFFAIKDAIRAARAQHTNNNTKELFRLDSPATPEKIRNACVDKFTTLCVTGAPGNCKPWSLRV

HL-60 [6] = test: Downregulation of mTOR expression level in human HL-60 cells at 0.5 to 2 uM by Western blotting analysis; assay type: functional, cell-based; conditions: dose 0.5-2 µM

Row | IC50 (MDA-MB-231) [µM] | IC50 (HL-60 [1]) [µM] | IC50 (NCI-H1975) [µM] | IC50 [5] [µM] | Compound | Activity (Rattus norvegicus [2]) | Activity (Rattus norvegicus [3]) | Activity (Rattus norvegicus [4]) | Activity (HL-60 [6])
1 | > 100 | > 100 | > 100 |  | Cc1nc(-c2ccc(OCC(C)C)c(C#N)c2)sc1C(=O)O [FEBUXOSTAT] | Active | Active | Active | 
2 | 7.08 | 1.71 | 18.2 | 0.7 | Cc1nc(-c2ccc(OCC(C)C)c(C#N)c2)sc1C(=O)NCCCCCC(=O)Nc1ccccc1N |  |  |  | 
3 | 3.81 | 1.64 | 11.2 | > 2 | Cc1nc(-c2ccc(OCC(C)C)c(C#N)c2)sc1C(=O)NCc1ccc(NC(=O)CCCCCCCC(=O)Nc2ccccc2N)cc1 |  |  |  | 
4 |  |  |  |  | O=C(CCCCCCC(=O)Nc1ccccc1)NO |  |  |  | Active
5 | > 50 | 10.6 | > 50 | 0.0033 | Cc1nc(-c2ccc(OCC(C)C)c(C#N)c2)sc1C(=O)NO |  |  |  | 
6 | 4.09 | 0.805 | 11.4 | 0.021 | Cc1nc(-c2ccc(OCC(C)C)c(C#N)c2)sc1C(=O)NCc1ccc(C(=O)NO)cc1 |  |  |  | 
7 | 9.9 | 0.56 | > 50 | > 2 | Cc1nc(-c2ccc(OCC(C)C)c(C#N)c2)sc1C(=O)NCc1ccc(C(=O)NCCCCCCC(=O)NO)cc1 |  |  |  | 
8 | 19.6 | 11.8 | 28.3 | > 2 | Cc1nc(-c2ccc(OCC(C)C)c(C#N)c2)sc1C(=O)NCc1ccc(NC(=O)CCCCCC(=O)Nc2ccccc2N)cc1 |  |  |  | 
9 | 12.4 | 3.42 | 12.6 | > 2 | Cc1nc(-c2ccc(OCC(C)C)c(C#N)c2)sc1C(=O)NCc1ccc(NC(=O)CCCCCCC(=O)NO)cc1 |  |  |  | 
10 | > 50 | 18 | > 50 | > 2 | Cc1nc(-c2ccc(OCC(C)C)c(C#N)c2)sc1C(=O)NCc1ccc(NC(=O)CCCCCC(=O)NO)cc1 |  |  |  | 
11 | 6.35 | 1.29 | 6.77 | 0.0062 | Cc1nc(-c2ccc(OCC(C)C)c(C#N)c2)sc1C(=O)NCCCCCC(=O)NO |  |  |  | 
12 | > 50 | 1.26 | > 50 | 0.076 | Cc1nc(-c2ccc(OCC(C)C)c(C#N)c2)sc1C(=O)Nc1ccccc1N |  |  |  | 
13 | 41.1 | 1.54 | > 50 | 0.85 | Cc1nc(-c2ccc(OCC(C)C)c(C#N)c2)sc1C(=O)NCCCCCCC(=O)Nc1ccccc1N |  |  |  | 
14 | 5.55 | 1.58 | 9.36 | > 2 | Cc1nc(-c2ccc(OCC(C)C)c(C#N)c2)sc1C(=O)NCc1ccc(NC(=O)CCCCCCC(=O)Nc2ccccc2N)cc1 |  |  |  | 
15 | 3.38 | 4.25 | 28.8 | > 2 | Cc1nc(-c2ccc(OCC(C)C)c(C#N)c2)sc1C(=O)NCc1ccc(NC(=O)CCCCCCCCC(=O)Nc2ccccc2N)cc1 |  |  |  | 
16 | > 50 | 3.04 | 8.61 | > 2 | Cc1nc(-c2ccc(OCC(C)C)c(C#N)c2)sc1C(=O)NCc1ccc(NC(=O)CCCCCCCCC(=O)NO)cc1 |  |  |  | 
17 | 9.63 | 1.01 | 18.3 | > 2 | Cc1nc(-c2ccc(OCC(C)C)c(C#N)c2)sc1C(=O)NCc1ccc(C(=O)Nc2ccccc2N)cc1 |  |  |  | 
18 | > 50 | 0.696 | > 50 | > 2 | Cc1nc(-c2ccc(OCC(C)C)c(C#N)c2)sc1C(=O)NCc1ccc(C(=O)NCCCCCCC(=O)Nc2ccccc2N)cc1 |  |  |  | 
19 | 31.5 | > 50 | 18.7 | > 2 | Cc1nc(-c2ccc(OCC(C)C)c(C#N)c2)sc1C(=O)NCc1ccc(NC(=O)CCCCCCCC(=O)NO)cc1 |  |  |  | 
